Ends that are not written are not given here.
Experiments:
[1] = test system: Male, Swiss Webster mice; assay: Naloxone-precipitated morphine withdrawal, CRH driven rodent model 2 (Example 6); type: in vivo, mouse
Description: A similar study was performed using a CRH antagonist (CP154, 526) in the precipitated withdrawal model.
Male, Swiss Webster mice were treated with seven (7) doses of Morphine 3.2 mg/kg i.p. (d1×5 and d2×2). Animals were then administered a test substance subcutaneously one hour after the last morphine injection with either: (i) nothing (morphine only); (ii) CRH antagonist (CP154, 526) or (iii) TCAP-1 and then an hour after the test substance the animals were administered naloxone i.p at 10 mg/kg, to induce withdrawal.
Two hours after last morphine treatment (i.e. after administration of Naloxone) the mice were immediately placed individually in an observation area and video recorded 20 minutes. The number of jumps (lifting of all feet off the ground) documented for 20 minutes.
(For description on CP154, 526 see for example, CNS Drug Reviews, Vol. 9, No. 1, pp 57-96, Seymour, Patricia A., et al, “The Pharmacology of CP-154,526, A Non-Peptide Antagonist of the CRH1 Receptor: A Review, incorporated herein by reference.)

[2] = test system: Swiss Webster mice; assay: Naloxone-precipitated morphine withdrawal, CRH driven rodent model 1 (Example 5); type: in vivo, mouse
Description: In one model, Swiss Webster mice were stressed following chronic opiate administration.
In this Example, TCAP-1 was administered at the graded doses, daily for three days prior to administration of morphine. Morphine was then administered at 3.2 mg/kg i.p. on day 4 (5 times) and 5 (twice), and then one hour the last dose of morphine, naloxone is administered i.p at 10 mg/kg, to induce withdrawal.
One hour after last morphine treatment (i.e. after administration of Naloxone) the mice were immediately placed individually in an observation area and video recorded 20 minutes. The number of jumps (lifting of all feet off the ground) documented for 20 minutes

[3] = test system: Sprague-Dawley rat (SD); assay: Restraint stress model, corticosterone (Example 7, FIG. 14 B); type: in vivo; settings: amidated human TCAP-1 (SEQ ID NO: 2); restraint 30-60 minutes on successive days; dosed at day 1 and day 2; effect within 3 days
Excerpt: Amidated mouse TCAP-1 (SEQ ID NO: 1) was suspended in 0.9% saline. [[…], Ambiopharm] for subcutaneous injection in the interscapular region and used in Examples 1, Amidated human TCAP-1 (SEQ ID NO: 2) was suspended in 0.9% saline. [10 nmol/Kg, Ambiopharm] was used in Example 7, for the SD-rat (FIG. 14 B).
(§1) The inventors, extended the behavioural activity in a severe restraint model the changes in a stress related biomarker such as corticosterone is depicted in FIG. 14. (See for example de Pablos, R. N. et al (2014), Creating a Rat model of Chronic Variate Stress. Bio-protocol 4(23): e1315.DOI).
(§2) In this model animals, Swiss Webster mice (SW) (FIG. 14 A) and Sprague-Dawley rat (SD) (FIG. 14 B) were restrained in confined spaces for upwards of 30-60 minutes on successive days. TCAP-1 was administered once at day 1 and at day 2 in the 5-day model.

[4] = test system: Swiss Webster mice (SW); assay: Restraint stress model, corticosterone (Example 7, FIG. 14 A); type: in vivo, mouse; settings: restraint 30-60 minutes on successive days; dosed once at day 1 and day 2; effect in 5 days
Description: as §1, §2

[5] = test system: Male adult Sprague-Dawley rats; assay: Modified Open Field Test with noise pollution (Example 1); type: in vivo, rat
Excerpt: Male adult Sprague-Dawley rats (˜350 g) treated for 3 months (1 injection/week) with either vehicle (0.9% saline) or TCAP-1 (25 nmoles/kg) were used in Example 1.
Behaviour—Modified Open Field Test
The Open Field Test is a behavioral test paradigm used to investigate anxiety-related behaviours in rodents (Bailey K R and Crawley J N, 2009, in: Buccafusco J J, editor. Source Methods of Behavior Analysis in Neuroscience. 2nd edition. Boca Raton (Fla.): CRC Press/Taylor & Francis; 2009. Chapter 5.). In this experiment, the animals were exposed to high frequency noise pollution to induce a stress response while the animals were in the OFT apparatus. The test was performed one week post last injection of the long-term (3 month) treatment with either vehicle (0.9% saline) or TCAP-1 (25 nmoles/kg). Animals were individually placed in a plexiglass box (50 L×50 W) and digitally recorded and tracked for five (5) minutes. In the centre of the box is a designated section termed the centre zone. Behaviours are then analyzed from videos and recorded for time spent in centre zone, distance travelled in centre zone, and total distance travelled. Moreover, peering behaviour, grooming behaviour, and rearing behaviour were also analyzed (definitions below).
(a) Peering: Digital recordings were analyzed for Peering behaviour. Peering behaviour was defined as the specific notion where animals would stand on their back hind limbs in order to look over the side of the glass wall (i.e, The event where an animal rears specifically to peer over the side of the apparatus). This behaviour can be interpreted as an explorative or anti-fear response.
(b) Grooming: Digital recordings were analyzed for Grooming behaviour. Grooming behaviour was defined as the animals cleaning their face or bodies, i.e., the event where an animal grooms himself (usually his hands and face).
(c) Rearing: Digital recordings were analyzed for Rearing behaviour. Rearing behaviour was defined as an event where animals stand on their hind limbs (i.e., the event where an animal gets on his hind limbs in exploration). This behaviour is interpreted as an explorative behaviour, which is a low anxiety response.
Animals were digitally recorded and tracked for five (5) minutes in the Open Field Test with noise pollution. The noise pollution was large construction noise, intermittent and not at predictable intervals. […] As rearing behaviour is highly associated with anti-anxious behaviour, this corroborates the data indicating TCAP-1 is reducing stress-related behaviour.

[6] = test system: C57Bl/6J mice; assay: Open field motor activity (OF) after CSD (Example 4); type: in vivo, mouse; settings: 15 min open field
Description: (§3) The mouse chronic social defeat (“CSD”) model has been accepted as a model of PTSD [Flandreau, et al, 2018]. This model involves exposure of C57Bl/6J mice to chronic stress by aggressor mice (male CD-1 ex-breeders) for a defined period of 15 days. Starting from day 15, mice were further tested in the open field (OF) model.
Behavioral tests such as Open field motor activity (OF) were also conducted. See the schematic of FIG. 7.
In this model set up the test was conducted 15 days after the last CSD session. The mouse was placed on the Open Field apparatus floor in the center of empty arena for 15 min without exposure to any other stimuli. The following parameters were calculated from the data: distance moved, number of vertical rearing's, velocity and % resting time (no movement activity). Open field activity chambers (Med Associates Inc, St Albans, Vt.; 27×27×20.3 cm) are equipped with IR beams with red light conditions. A mouse is considered to have no movement activity when the mouse is not breaking two adjacent beams consecutively (distance between two adjacent beams is about 1.7 cm).

[7] = test system: C57Bl/6J mice; assay: Chronic social defeat (CSD) model (Example 3); type: in vivo, mouse; settings: subcutaneous once a day days 1-7; for attack latency (time between retreat and evaluating the predator): FIG. 8
Excerpt: as §3
Experimental Set Up of Mice.
CD-1 mice were housed, one mouse per cage, during the experiments. C57Bl/6J mice were housed in pairs while not subjected to CSD. Mice are acclimated to the animal facility for minimum 5 days before the onset of the study.
CD-1 aggressor mice are determined by using the procedures by Golden et al. (2011). Screening involves three days of selection testing. After the screening and selection of 80 aggressor mice, the chronic social defeat (CSD) paradigm was conducted.
The CSD mouse group were subcutaneously injected once a day with vehicle or TCAP-1 days 1-7.
Under dim lighting a CSD mouse was subjected to direct exposure with a CD-1 aggressor mouse. […] The latency to the first attack was also recorded, and time needed to gain 60 s physical attack time. After the 10 min session, CSD mice were exposed to CD-1 mice through perforated transparent divider for 24 h. If the CD-1 mice are very aggressive (if wounding consistently exceeds veterinary guidelines), the exposure time can be shortened to 5 min or less.
This setup allows direct and continued olfactory, visual, auditory exposure for the rest of the day. On the following day, a CSD mouse is placed in a cage in similar fashion with 10 min direct exposure followed by chronic exposure through divider. Cycle is repeated for 15 days, replacing the […] with a new one every day until day 15. Thereafter, CSD mice remain caged next to the same CD-1 mice without any further attack sessions or rotations for days 16-17.
Attack latency is the period between retreat and confrontation. […] Aggressive contact time reflects the number of direct contacts. FIG. 9 illustrates that administration of TCAP-1, the animal will approach the predator and not retreat.

[8] = 25 nmoles/kg, 1 injection/week for 3 months, 5 min, vs vehicle

Compound | symptomology of precipitated withdrawal ([1]; small molecule CRH antagonist, 20 mg/Kg subcutaneously) | number of jumps per 20 minutes after naloxone ([1]; TCAP-1 250 nmole/Kg subcutaneously one hour after last morphine, versus CP154, 526 at 20 mg/Kg, FIG. 13) | jumping activity (number of jumps per 20 minutes) following naloxone ([2]; graded doses daily for three days prior to morphine 3.2 mg/kg i.p., naloxone 10 mg/kg i.p., FIG. 12) | symptomology of precipitated withdrawal ([2]; mice stressed following chronic opiate administration) | rise in corticosterone [3] | rise in corticosterone [4] | time in the centre zone ([5]; 25 nmoles/kg, 1 injection/week for 3 months, tested one week post last injection, 5 min, vs vehicle) | entries into centre zone [5, 8] | grooming behaviour [5, 8] | peering behaviour [5, 8] | rearing behaviour [5, 8] | stress-related behaviour in the Open Field Test with noise pollution ([5]; chronic TCAP-1 administration) | anxiety toward surroundings [6] | number of vertical rearings ([6]; FIG. 10) | attack latency (time between retreat and evaluating the predator) [7] | attack latency (time between retreat and evaluating the predator) ([7]; listed as TCAp-1) | aggressive contact time (number of direct contacts) ([7]; FIG. 9)
CCCCN(CC)c1nc(C)nc2c1c(C)cn2-c1c(C)cc(C)cc1C [CP154, 526, reference compound] | limited success |  |  |  |  |  |  |  |  |  |  |  |  |  |  |  | 
Teneurin C-Terminal Associated Peptide-1 (QQLLGTGRVQGYDGYFVLSVEQYLELSDSANNIHFMRQSEI-NH2; not fully specified) [TCAP-1] |  | efficacy | dose dependent reduction in jumping activity | efficiently modulated | modulated the rise in corticosterone | modulated the rise in corticosterone | significantly more time in the centre zone | more entries into centre zone | not found to be significantly different between groups | not found to be significantly different between groups | significantly increased | significantly decreased stress-related behaviour | reduced anxiety toward their surroundings | reduced rearing events were observed | attack latency increased | reduces the time between retreat and evaluating the predator | increased
